Data: ChEMBL document CHEMBL5360540, “Antitumor effect of 3-(quinolin-2-ylmethylene)-4,6-dimethyl-5-hydroxy-7-azaoxindole down-regulating the Gas6-Axl axis” (Eur J Med Chem, 2023)

Legend:
MCF7 [1] = experiment: Cytotoxicity against human MCF7 cells assessed as inhibition of cell growth at 30 uM incubated for 48 hrs by MTT assay relative to control; format: functional
PANC-1 [2] = experiment: Cytotoxicity against human PANC-1 cells assessed as inhibition of cell growth at 30 uM incubated for 48 hrs by MTT assay relative to control; format: functional
MCF7 [3] = experiment: Cytotoxicity against human MCF7 cells assessed as inhibition of cell growth incubated for 48 hrs by MTT assay; format: functional, cell-based; details: MCF7, 48 h
MDA-MB-231 = experiment: Cytotoxicity against human MDA-MB-231 cells assessed as inhibition of cell growth incubated for 48 hrs by MTT assay; format: functional, cell-based; details: MDA-MB-231, 48 h
HT-29 = experiment: Cytotoxicity against human HT-29 cells assessed as inhibition of cell growth incubated for 48 hrs by MTT assay; format: functional, cell-based; details: HT-29, 48 h
DU-145 = experiment: Cytotoxicity against human DU-145 cells assessed as inhibition of cell growth incubated for 48 hrs by MTT assay; format: functional, cell-based; details: DU-145, 48 h
U-937 = experiment: Cytotoxicity against human U-937 cells assessed as inhibition of cell growth incubated for 48 hrs by MTT assay; format: functional, cell-based; details: U-937, 48 h
A549 = experiment: Cytotoxicity against human A549 cells assessed as inhibition of cell growth incubated for 48 hrs by MTT assay; format: functional, cell-based; details: A549, 48 h
PANC-1 [4] = experiment: Cytotoxicity against human PANC-1 cells assessed as inhibition of cell growth incubated for 48 hrs by MTT assay; format: functional, cell-based; details: PANC-1, 48 h
[5] = Cytotoxicity against CHO-K1 cells assessed as inhibition of cell growth incubated for 48 hrs by MTT assay; format: toxicity, cell-based, Cricetulus griseus; details: Chinese hamster
[6] = Cytotoxicity against HEK293 cells assessed as inhibition of cell growth incubated for 48 hrs by MTT assay; format: toxicity, cell-based; details: human
[7] = Safety index, ratio of IC50 for CHO-K1 cells to IC50 for human MCF7 cells; format: toxicity; details: Chinese hamster (CHO-K1), CHO-K1 cells versus MCF7 cells, read-out: Ratio IC50
[8] = Safety index, ratio of IC50 for CHO-K1 cells to IC50 for human MDA-MB-231 cells; format: toxicity; details: Chinese hamster (CHO-K1), CHO-K1 cells versus MDA-MB-231 cells, read-out: Ratio IC50
[9] = Safety index, ratio of IC50 for CHO-K1 cells to IC50 for human HT-29 cells; format: toxicity; details: Chinese hamster (CHO-K1), CHO-K1 cells versus HT-29 cells, read-out: Ratio IC50
[10] = Safety index, ratio of IC50 for CHO-K1 cells to IC50 for human DU-145 cells; format: toxicity; details: Chinese hamster (CHO-K1), CHO-K1 cells versus DU-145 cells, read-out: Ratio IC50
[11] = Safety index, ratio of IC50 for CHO-K1 cells to IC50 for human U-937 cells; format: toxicity; details: Chinese hamster (CHO-K1), CHO-K1 cells versus U-937 cells, read-out: Ratio IC50
[12] = Safety index, ratio of IC50 for CHO-K1 cells to IC50 for human A549 cells; format: toxicity; details: Chinese hamster (CHO-K1), CHO-K1 cells versus A549 cells, read-out: Ratio IC50
[13] = Safety index, ratio of IC50 for CHO-K1 cells to IC50 for human PANC-1 cells; format: toxicity; details: Chinese hamster (CHO-K1), CHO-K1 cells versus PANC-1 cells, read-out: Ratio IC50
[14] = Safety index, ratio of IC50 for HEK293 cells to IC50 for human MCF7 cells; format: toxicity; details: HEK293 cells versus MCF7 cells, read-out: Ratio IC50
[15] = Safety index, ratio of IC50 for HEK293 cells to IC50 for human MDA-MB-231 cells; format: toxicity; details: HEK293 cells versus MDA-MB-231 cells, read-out: Ratio IC50
[16] = Safety index, ratio of IC50 for HEK293 cells to IC50 for human HT-29 cells; format: toxicity; details: HEK293 cells versus HT-29 cells, read-out: Ratio IC50
[17] = Safety index, ratio of IC50 for HEK293 cells to IC50 for human DU-145 cells; format: toxicity; details: HEK293 cells versus DU-145 cells, read-out: Ratio IC50
[18] = Safety index, ratio of IC50 for HEK293 cells to IC50 for human U-937 cells; format: toxicity; details: HEK293 cells versus U-937 cells, read-out: Ratio IC50
[19] = Safety index, ratio of IC50 for HEK293 cells to IC50 for human A549 cells; format: toxicity; details: HEK293 cells versus A549 cells, read-out: Ratio IC50
[20] = Safety index, ratio of IC50 for HEK293 cells to IC50 for human PANC-1 cells; format: toxicity; details: HEK293 cells versus PANC-1 cells, read-out: Ratio IC50

Cc1nc2c(c(C)c1O)/C(=C/c1ccc[nH]1)C(=O)N2
inhibition at 30 µM (MCF7 [1]): 27% | inhibition at 30 µM (PANC-1 [2]): 16.9%

Cc1nc2c(c(C)c1O)/C(=C/c1ccco1)C(=O)N2
inhibition at 30 µM (MCF7 [1]): 31.5% | inhibition at 30 µM (PANC-1 [2]): 16.4%

Cc1nc2c(c(C)c1O)/C(=C/C1CCCCC1)C(=O)N2
inhibition at 30 µM (MCF7 [1]): 10% | inhibition at 30 µM (PANC-1 [2]): 49.1%

Cc1nc2c(c(C)c1O)/C(=C/c1ccncc1)C(=O)N2
inhibition at 30 µM (MCF7 [1]): 63.2% | inhibition at 30 µM (PANC-1 [2]): 65.5% | IC50 (MCF7 [3]): 19.1 µM | IC50 (MDA-MB-231): > 90 µM | IC50 (HT-29): 30.1 µM | IC50 (DU-145): 30.8 µM | IC50 (U-937): 34.5 µM | IC50 (A549): 30.1 µM | IC50 (PANC-1 [4]): 19.1 µM | IC50 at 48 h [5]: 57 µM | IC50 at 48 h [6]: > 90 µM

COc1cc(/C=C2\C(=O)Nc3nc(C)c(O)c(C)c32)cc(OC)c1OC
inhibition at 30 µM (MCF7 [1]): 41.2% | inhibition at 30 µM (PANC-1 [2]): 40.7%

Cc1nc2c(c(C)c1O)/C(=C/c1ccc([N+](=O)[O-])cc1)C(=O)N2
inhibition at 30 µM (MCF7 [1]): 16.3% | inhibition at 30 µM (PANC-1 [2]): 32.6%

COc1cc(/C=C/C=C2\C(=O)Nc3nc(C)c(O)c(C)c32)ccc1O
inhibition at 30 µM (MCF7 [1]): 6.9% | inhibition at 30 µM (PANC-1 [2]): 24.5%

Cc1nc2c(c(C)c1O)/C(=C/c1ccc(N(C)C)cc1)C(=O)N2
inhibition at 30 µM (MCF7 [1]): 62.5% | inhibition at 30 µM (PANC-1 [2]): 66.4% | IC50 (MCF7 [3]): 13.2 µM | IC50 (MDA-MB-231): 12.1 µM | IC50 (HT-29): 36.3 µM | IC50 (DU-145): 1.1 µM | IC50 (U-937): > 90 µM | IC50 (A549): 13.2 µM | IC50 (PANC-1 [4]): 13.8 µM | IC50 at 48 h [5]: > 90 µM | IC50 at 48 h [6]: > 90 µM | selectivity ratio [7]: > 6.8 | selectivity ratio [8]: > 7.4 | selectivity ratio [9]: > 2.5 | selectivity ratio [10]: > 81.8 | selectivity ratio [11]: > 1 | selectivity ratio [12]: > 6.8 | selectivity ratio [13]: > 6.5 | selectivity ratio [14]: > 6.8 | selectivity ratio [15]: > 7.4 | selectivity ratio [16]: > 2.5 | selectivity ratio [17]: > 81.8 | selectivity ratio [18]: > 1 | selectivity ratio [19]: > 6.8 | selectivity ratio [20]: > 6.5

CCC(/C=C1\C(=O)Nc2nc(C)c(O)c(C)c21)CC
inhibition at 30 µM (MCF7 [1]): 30.5% | inhibition at 30 µM (PANC-1 [2]): 45%

Cc1cc(C)c(/C=C2\C(=O)Nc3nc(C)c(O)c(C)c32)[nH]1
inhibition at 30 µM (MCF7 [1]): 47.3% | inhibition at 30 µM (PANC-1 [2]): 44.8%

Cc1nc2c(c(C)c1O)/C(=C/c1ccc3ccccc3c1)C(=O)N2
inhibition at 30 µM (MCF7 [1]): 30.5% | inhibition at 30 µM (PANC-1 [2]): 29%

Cc1nc2c(c(C)c1O)/C(=C/c1nccs1)C(=O)N2
inhibition at 30 µM (MCF7 [1]): 5.6% | inhibition at 30 µM (PANC-1 [2]): 9%

Cc1nc2c(c(C)c1O)/C(=C/c1ccoc1)C(=O)N2
inhibition at 30 µM (MCF7 [1]): 66.3% | inhibition at 30 µM (PANC-1 [2]): 26.2% | IC50 (MCF7 [3]): 22.9 µM | IC50 (MDA-MB-231): > 90 µM | IC50 (HT-29): > 90 µM | IC50 (DU-145): 22.9 µM | IC50 (U-937): 31.5 µM | IC50 (A549): > 90 µM | IC50 (PANC-1 [4]): > 100 µM | IC50 at 48 h [5]: > 90 µM | IC50 at 48 h [6]: > 90 µM

Cc1nc2c(c(C)c1O)/C(=C/c1ccc(F)cc1)C(=O)N2
inhibition at 30 µM (MCF7 [1]): 48.3% | inhibition at 30 µM (PANC-1 [2]): 51.9%

Cc1nc2c(c(C)c1O)/C(=C/c1c[nH]c3ccccc13)C(=O)N2
inhibition at 30 µM (MCF7 [1]): 2.4% | inhibition at 30 µM (PANC-1 [2]): 17.1%

COc1ccc(/C=C2\C(=O)Nc3nc(C)c(O)c(C)c32)cc1
inhibition at 30 µM (MCF7 [1]): 23.9% | inhibition at 30 µM (PANC-1 [2]): 36.4%

Cc1nc2c(c(C)c1O)/C(=C/c1ccccc1[N+](=O)[O-])C(=O)N2
inhibition at 30 µM (MCF7 [1]): 23.9% | inhibition at 30 µM (PANC-1 [2]): 27.9%
